Measured values taken from PMC7948503, “Optimization of a peptide ligand for the adhesion GPCR ADGRG2 provides a potent tool to explore receptor biology” (The Journal of Biological Chemistry, 2020).
Starred links: 1 amine or outer side, 2 acyl side, 3 side chain; linkers in the order of their positions; H or OH if unused. Positions of bridges follow the written chain, without caps; N, C: chain ends. Non-standard residues stand in square brackets, D forms with d. Residues, ends and D or L forms follow the SMILES beside them. No end group written: not given here. X1 = CC(=O)NC(C(=O)OC(C(C)C)C(N[*:1])C(=O)[*:2])C(O)C(C)C; Phe(4-Me) = Cc1ccc(C[C@H](N)C(=O)O)cc1; 1Nal = N[C@@H](Cc1cccc2ccccc12)C(=O)O; PhLac = O=C(O)[CH](O)Cc1ccccc1; NMeT = CN[CH](C(=O)O)[CH](C)O; NMeA = CN[CH](C)C(=O)O; NMeDha = C=C(NC)C(=O)O

What was measured:
ADGRG2-ΔGPS-β = molecular target: T1, ADGRG2-ΔGPS-β (Mus musculus, UniProt Q8CJ12); experiment: GloSensor cAMP assay, HEK293 transfected with ADGRG2-ΔGPS-β; type: cell-based; settings: cAMP Glosensor; for EC50 compared with wildtype p15 or other mutants: concentration-response curves, ADGRG2-ΔGPS-β; for EC50: HEK293 transfected with ADGRG2-ΔGPS-β, increasing peptide concentration, repeated six times
T1 construct: the entire ECD (including the entire GPS motif) was removed (ADGRG2-ΔGPS-β); expressed in transfected cells; host or cells: HEK293
Source text: (§1) Wildtype ADGRG2 full-length (ADGRG2-FL) was cloned from mouse total cDNA libraries using the following primers: forward, […]; reverse, […], and then ADGRG2-FL, ADGRG2 C-terminal truncation mutant (ADGRG2-β), and ADGRG2-ΔGPS-β (the entire ECD of ADGRG2 was deleted) were subcloned into the pcDNA3.1 expression vector. The ADGRG2-ΔGPS-β mutants (T610A, Y611A, C614A, S661A, W662A, I663A, L665A, Y666A，N667A, F671A, L679A, L683A, I730A, V731A, F741A, F747A, W757A, I758A, N759A, S760A, V762A, F764A, Y765A, V768A, V769A, F772A, V774A, W824A, F826A, F828A, F829A, V834A, V836A, F838A, M839A, I844A, F845A) were generated using a QuikChange Mutagenesis Kit (Stratagene). All mutations were verified by DNA sequencing.
(§2) Human embryonic kidney 293 (HEK293) cells were maintained in Dulbecco’s modified Eagle’s medium supplemented with 10% fetal bovine serum, penicillin (100 IU/ml), and streptomycin (100 μg/ml) as described ([6], [38]). For receptor or other protein expression, plasmids carrying the desired genes were transfected into cells using Lipofectamine 2000 (Invitrogen).
(§3) The Glosensor cAMP assay was performed as described ([6], [39], [40]). HEK293 cells were transfected with the GloSensor plasmid and the desired expression plasmids in 24-well dishes. Twenty-four hours after transfection, the cells were plated on 96-well plates at a cell density of 20,000 cells/well. The cells were maintained in Dulbecco’s modified Eagle’s medium for another 24 h, washed with PBS, and then incubated with 100 μl of solution containing 10% fetal bovine serum, 2% (v/v) GloSensor cAMP reagent, and 88% CO2-independent medium in each well for 2 h. The cAMP signal was examined using a luminescence counter (Mithras LB 940).

ADGRG2 = experiment: CalfluxVTN Ca2+ assay; type: cell-based, mouse; settings: Gq/11 selective inhibitor
Description: For the Ca^2+ assays, HEK293 cells in 24-well dishes were cotransfected with plasmids encoding ADGRG2 or its mutants, CalfluxVTN constructs were used at a 6:1 ratio. Empty vector pcDNA3.1(+) was used to normalize the total amount of transfected plasmid DNA. The transfection and CalfluxVTN Ca^2+ assays were performed as previously reported ([28], [29], [41]) with minor modifications. In brief, 24 h post transfection, cells were harvested and distributed in 96-well flat-bottomed white microplates. After another 24 h, the cells were processed accordingly and then were added with the Nluc substrate furimazine (5 μM). The BRET signal was calculated by measuring the ratio of the light emitted by the Venus reporter (535 nm) relative to light emitted by the Nluc reporter (475 nm). The average baseline value (basal BRET ratio) recorded prior to agonist stimulation was subtracted from the experimental BRET signal values to obtain the ΔBRET ratio.

ADGRG2-FL = molecular target: T2, ADGRG2-FL (Mus musculus, UniProt Q8CJ12); experiment: GloSensor cAMP assay, HEK293 transfected with ADGRG2-FL; type: cell-based; settings: for p15 activity after alanine substitution (cAMP level): alanine scanning, 100 μM peptide, HEK293 ADGRG2-FL, Glosensor, compared with p15-WT, repeated six times; for EC50: HEK293 transfected with ADGRG2-FL, increasing peptide concentration, cAMP Glosensor, repeated 6 times
T2 construct: Wildtype ADGRG2 full-length (ADGRG2-FL) was cloned from mouse total cDNA libraries; expressed in transfected cells; host or cells: HEK293
Source text: as §1, §2, §3

[1] = molecular target: Rluc-ADGRG2-ΔGPS-β wildtype (mouse)

T1 sequence (Q8CJ12 618-1009 limits assumed, stated change not applied): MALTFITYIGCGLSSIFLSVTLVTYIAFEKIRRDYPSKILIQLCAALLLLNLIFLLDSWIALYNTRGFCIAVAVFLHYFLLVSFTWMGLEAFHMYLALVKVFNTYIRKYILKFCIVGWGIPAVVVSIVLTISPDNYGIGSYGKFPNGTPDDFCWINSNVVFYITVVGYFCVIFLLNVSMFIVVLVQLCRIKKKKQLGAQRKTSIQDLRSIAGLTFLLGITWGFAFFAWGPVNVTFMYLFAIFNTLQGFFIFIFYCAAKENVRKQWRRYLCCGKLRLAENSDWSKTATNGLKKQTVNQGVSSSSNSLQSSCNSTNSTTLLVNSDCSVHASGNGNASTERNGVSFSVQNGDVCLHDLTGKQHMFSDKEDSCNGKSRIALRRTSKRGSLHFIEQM
T2 sequence (Q8CJ12 38-995 isoform Q8CJ12-3 limits assumed): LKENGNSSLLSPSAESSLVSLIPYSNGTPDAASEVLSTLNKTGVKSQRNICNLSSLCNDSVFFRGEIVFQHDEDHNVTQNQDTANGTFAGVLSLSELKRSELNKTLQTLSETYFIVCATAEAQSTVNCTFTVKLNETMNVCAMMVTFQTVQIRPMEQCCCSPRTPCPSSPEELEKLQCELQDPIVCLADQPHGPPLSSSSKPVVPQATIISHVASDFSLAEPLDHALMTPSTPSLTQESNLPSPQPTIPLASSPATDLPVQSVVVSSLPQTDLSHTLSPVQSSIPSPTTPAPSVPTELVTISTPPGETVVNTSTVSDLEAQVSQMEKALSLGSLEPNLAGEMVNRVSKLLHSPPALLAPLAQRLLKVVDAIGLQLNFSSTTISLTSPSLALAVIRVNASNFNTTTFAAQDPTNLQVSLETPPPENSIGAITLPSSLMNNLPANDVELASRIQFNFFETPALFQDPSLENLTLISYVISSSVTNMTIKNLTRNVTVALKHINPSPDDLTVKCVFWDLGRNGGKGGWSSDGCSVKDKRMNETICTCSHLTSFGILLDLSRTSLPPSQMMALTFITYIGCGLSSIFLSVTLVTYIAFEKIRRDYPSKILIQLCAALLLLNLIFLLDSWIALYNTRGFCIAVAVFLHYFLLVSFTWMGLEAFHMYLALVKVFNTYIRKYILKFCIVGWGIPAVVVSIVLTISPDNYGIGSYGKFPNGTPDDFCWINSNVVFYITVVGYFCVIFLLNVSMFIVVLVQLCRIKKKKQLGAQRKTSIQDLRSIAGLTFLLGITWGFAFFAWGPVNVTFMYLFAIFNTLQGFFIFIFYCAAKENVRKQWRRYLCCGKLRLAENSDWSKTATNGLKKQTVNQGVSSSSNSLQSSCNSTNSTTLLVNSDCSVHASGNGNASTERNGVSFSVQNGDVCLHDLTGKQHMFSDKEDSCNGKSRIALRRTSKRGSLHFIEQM

CC[C@H](C)[C@H](NC(=O)CNC(=O)[C@H](Cc1cccc2ccccc12)NC(=O)[C@H](CO)NC(=O)[C@@H](N)[C@@H](C)O)C(=O)N[C@@H](CC(C)C)C(=O)N[C@@H](CC(C)C)C(=O)N[C@@H](CC(=O)O)C(=O)N[C@@H](CC(C)C)C(=O)N[C@@H](CO)C(=O)N[C@@H](CCCNC(=N)N)C(=O)N[C@H](C(=O)N[C@@H](CO)C(=O)N[C@@H](CC(C)C)C(=O)N1CCC[C@H]1C(=O)O)[C@@H](C)O [F3(1-Nal)] (H-TS[1Nal]GILLDLSRTSLP-OH)
EC50 compared with wildtype p15 or other mutants (ADGRG2-ΔGPS-β): lower EC50 value than wildtype p15

CC[C@H](C)[C@H](NC(=O)CNC(=O)[C@H](Cc1ccc(C)cc1)NC(=O)[C@H](CO)NC(=O)[C@@H](N)[C@@H](C)O)C(=O)N[C@@H](CC(C)C)C(=O)N[C@@H](CC(C)C)C(=O)N[C@@H](CC(=O)O)C(=O)N[C@@H](CC(C)C)C(=O)N[C@@H](CO)C(=O)N[C@@H](CCCNC(=N)N)C(=O)N[C@H](C(=O)N[C@@H](CO)C(=O)N[C@@H](CC(C)C)C(=O)N1CCC[C@H]1C(=O)O)[C@@H](C)O [F3Phe(4-Me)] (H-TS[Phe(4-Me)]GILLDLSRTSLP-OH)
EC50 compared with wildtype p15 or other mutants (ADGRG2-ΔGPS-β): lower EC50 value than wildtype p15

CC[C@H](C)[C@H](NC(=O)CNC(=O)[C@H](Cc1cccc2ccccc12)NC(=O)[C@H](CO)NC(=O)[C@@H](N)C(C)C)C(=O)N[C@@H](CC(C)C)C(=O)N[C@@H](CC(C)C)C(=O)N[C@@H](CC(=O)O)C(=O)N[C@@H](CC(C)C)C(=O)N[C@@H](CO)C(=O)N[C@@H](CCCNC(=N)N)C(=O)N[C@H](C(=O)N[C@@H](CO)C(=O)N[C@@H](CC(C)C)C(=O)N1CCC[C@H]1C(=O)O)[C@@H](C)O [T1V/F3(1-Nal)] (H-VS[1Nal]GILLDLSRTSLP-OH)
EC50 (ADGRG2-ΔGPS-β): 4.7 µM
EC50 compared with wildtype p15 or other mutants (ADGRG2-ΔGPS-β): significant lower EC50 than other mutants

C=C1C(=O)NC(C)C(=O)N(C)C(C)C(=O)NC(C(OC(=O)C(NC(C)=O)C(O)C(C)C)C(C)C)C(=O)N(C)C(C(C)OC)C(=O)OC(C)C(NC(C)=O)C(=O)OC(Cc2ccccc2)C(=O)N1C (centres unmarked) [YM-254890] (Ac-T[PhLac][NMeDha]A[NMeA][X1][NMeT](Me); ester 1-C; configuration not given here)
inhibition of p15-elicited rise in intracellular calcium (ADGRG2): inhibited

F3A: p15 alanine-scan mutant F3A (TSAGILLDLSRTSLP)
p15 activity after alanine substitution (cAMP level) (ADGRG2-FL): greatly impaired p15 activity

FITC-conjugated VPM-p15 (ADGRG2 Stachel peptide p15 T1V/F3Phe(4-Me))
EC50 of cAMP accumulation (GloSensor assay), HEK293 cells transfected with ADGRG2-ΔGPS-β, increasing concentrations of VPM-p15 (without FITC) [1]: 1.41 µM
fold change of the EC50 of cAMP accumulation (GloSensor assay) against the wildtype p15 peptide, ADGRG2-ΔGPS-β in HEK293 cells [1]: 170 fold

R11A: p15 alanine-scan mutant R11A (TSFGILLDLSATSLP)
p15 activity after alanine substitution (cAMP level) (ADGRG2-FL): greatly impaired p15 activity

TSFGILLDLSRTSAP [L14A]
EC50 (ADGRG2-FL): 274 µM

TSFGILLDLSRTSLP [p15, reference compound]
EC50 (ADGRG2-FL): 175 µM
EC50 (ADGRG2-ΔGPS-β): 243 µM

VSFGILLDLSRTSLP [T1V]
EC50 compared with wildtype p15 or other mutants (ADGRG2-ΔGPS-β): lower EC50 value than wildtype p15

VSFGILLDLSRTSLP [ADGRG2 Stachel peptide p15 T1V]
cAMP accumulation (GloSensor assay), HEK293 cells transfected with ADGRG2-ΔGPS-β, 100 μM peptide, against wildtype p15 [1]: 3 fold
